With `Cc1ccccc1CC(=NC#N)NC(NC(=O)CF)C(C)(C)C` (stereo not drawn), the melting point fell in the range of 151 to 152 °C. `Cc1ccccc1CC(=NC#N)NC(NC(=O)Cc1ccccc1)C(C)(C)C` (stereo not drawn) [Example 1, N-(1-{[N-cyano-2-(2-methylphenyl)ethanimidoyl]amino}-2,2-dimethylpropyl)-2-phenylacetamide] yielded a melting point of 182 to 183 °C. For `Cc1ccccc1CC(=NC#N)NC(NC(=O)Cc1ccc(Cl)cc1)C(C)(C)C` (stereo not drawn) [Example 2, 2-(4-chlorophenyl)-N-(1-{[N-cyano-2-(2-methylphenyl)ethanimidoyl]amino}-2,2-dimethylpropyl)acetamide] the value was 183 to 185 °C.

`COc1ccc(CC(=O)NC(NC(Cc2ccccc2C)=NC#N)C(C)(C)C)cc1OC` (stereo not drawn) [Example 3, N-(1-{[N-cyano-2-(2-methylphenyl)ethanimidoyl]amino}-2,2-dimethylpropyl)-2-(3,4-dimethoxyphenyl)acetamide] displayed a melting point of 153 to 155 °C. As for `COc1ccc(CC(=O)NC(NC(Cc2ccccc2C)=NC#N)C(C)(C)C)cc1` (stereo not drawn) [Example 4, N-(1-{[N-cyano-2-(2-methylphenyl)ethanimidoyl]amino}-2,2-dimethylpropyl)-2-(4-methoxyphenyl)acetamide], the melting point lay in the range of 199 to 201 °C. As to `Cc1ccccc1CC(=NC#N)NC(NC(=O)Cc1ccc2c(c1)OCO2)C(C)(C)C` (stereo not drawn) [Example 5, 2-(1,3-benzodioxol-5-yl)-N-(1-{[N-cyano-2-(2-methylphenyl)ethanimidoyl]amino}-2,2-dimethylpropyl)acetamide], the melting point lay in the range of 167 to 169 °C. Molecule `Cc1ccccc1CC(=NC#N)NC(NC(=O)Cc1ccc(C#N)cc1)C(C)(C)C` (stereo not drawn) [Example 6, N-(1-{[N-cyano-2-(2-methylphenyl)ethanimidoyl]amino}-2,2-dimethylpropyl)-2-(4-cyanophenyl)acetamide] returned a melting point of 199 to 201 °C. Take `Cc1ccccc1CC(=NC#N)NC(NC(=O)Cc1ccc2c(c1)OCCO2)C(C)(C)C` (stereo not drawn) [Example 7, N-(1-{[N-cyano-2-(2-methylphenyl)ethanimidoyl]amino}-2,2-dimethylpropyl)-2-(2,3-dihydro-1,4-benzodioxin-6-yl)acetamide]: the melting point lay within 180 to 181 °C.

In turn, `Cc1ccccc1CC(=NC#N)NC(NC(=O)Cc1cccc2ccccc12)C(C)(C)C` (stereo not drawn) [Example 9, N-(1-{[N-cyano-2-(2-methylphenyl)ethanimidoyl]amino}-2,2-dimethylpropyl)-2-(1-naphthyl)acetamide] came in with a melting point of 97 to 100 °C. With `Cc1ccccc1CC(=NC#N)NC(NC(=O)Cc1ccc2ncccc2c1)C(C)(C)C` (stereo not drawn) [Example 10, N-(1-{[N-cyano-2-(2-methylphenyl)ethanimidoyl]amino}-2,2-dimethylpropyl)-2-quinolin-6-ylacetamide], the melting point fell in the range of 172 to 173 °C. As for `Cc1ccccc1CC(=NC#N)NC(NC(=O)Cc1ccc2cccnc2c1)C(C)(C)C` (stereo not drawn) [Example 11, N-(1-{[N-cyano-2-(2-methylphenyl)ethanimidoyl]amino}-2,2-dimethylpropyl)-2-quinolin-7-ylacetamide], the melting point was in the range of 165 to 166 °C. Take `Cc1ccccc1CC(=NC#N)NC(NC(=O)CCCc1cccs1)C(C)(C)C` (stereo not drawn) [Example 12, N-(1-{[N-cyano-2-(2-methylphenyl)ethanimidoyl]amino}-2,2-dimethylpropyl)-4-thien-2-ylbutanamide]: the melting point is 154 to 155 °C. Turning to `Cc1ccccc1CC(=NC#N)NC(NC(=O)Cc1ccc(F)c(F)c1)C(C)(C)C` (stereo not drawn) [Example 13, N-(1-{[N-cyano-2-(2-methylphenyl)ethanimidoyl]amino}-2,2-dimethylpropyl)-2-(3,4-difluorophenyl)acetamide], the melting point was 178 to 179 °C. As to `CCSc1ccc(CC(=O)NC(NC(Cc2ccccc2C)=NC#N)C(C)(C)C)cc1` (stereo not drawn) [Example 14, N-(1-{[N-cyano-2-(2-methylphenyl)ethanimidoyl]amino}-2,2-dimethylpropyl)-2-[4-(ethylthio)phenyl]acetamide], the melting point was in the range of 196 to 198 °C. Consider `CSc1ccc(CC(=O)NC(NC(Cc2ccccc2C)=NC#N)C(C)(C)C)cc1` (stereo not drawn) [Example 15, N-(1-{[N-cyano-2-(2-methylphenyl)ethanimidoyl]amino}-2,2-dimethylpropyl)-2-[4-(methylthio)phenyl]acetamide], for which the melting point lay within 201 to 202 °C.

In the case of `COc1ccc(CCCC(=O)NC(NC(Cc2ccccc2C)=NC#N)C(C)(C)C)cc1` (stereo not drawn) [Example 16, N-(1-{[N-cyano-2-(2-methylphenyl)ethanimidoyl]amino}-2,2-dimethylpropyl)-4-(4-methoxyphenyl)butanamide], the melting point is 171 to 172 °C. As for `Cc1ccccc1CC(=NC#N)NC(NC(=O)CCCCc1ccccc1)C(C)(C)C` (stereo not drawn) [Example 17, N-(1-{[N-cyano-2-(2-methylphenyl)ethanimidoyl]amino}-2,2-dimethylpropyl)-5-phenylpentanamide], the melting point was 151 to 152 °C.

For `Cc1ccccc1CC(=NC#N)NC(NC(=O)Cc1cccnc1)C(C)(C)C` (stereo not drawn) [Example 18, N-(1-{[N-cyano-2-(2-methylphenyl)ethanimidoyl]amino}-2,2-dimethylpropyl)-2-pyridin-3-ylacetamide], the melting point fell in the range of 84 to 86 °C. As to `Cc1ccccc1C(=NC#N)NC(NC(=O)Cc1ccc(Cl)cc1)C(C)(C)C` (stereo not drawn) [Example 19, 2-(4-chlorophenyl)-N-(1-{[(cyanoimino)(2-methylphenyl)methyl]amino}-2,2-dimethylpropyl)acetamide], the melting point lay in the range of 109 to 110 °C. For the molecule `Cc1ncccc1CC(=NC#N)NC(NC(=O)Cc1ccc(Cl)cc1)C(C)(C)C` (stereo not drawn) [Example 20, 2-(4-chlorophenyl)-N-(1-{[N-cyano-2-(2-methylpyridin-3-yl)ethanimidoyl]amino}-2,2-dimethylpropyl)acetamide], the melting point fell in the range of 118 to 119 °C.

`COc1ccc(CC(=O)NC(NC(Cc2cccnc2C)=NC#N)C(C)(C)C)cc1OC` (stereo not drawn) [Example 21, N-(1-{[N-cyano-2-(2-methylpyridin-3-yl)ethanimidoyl]amino}-2,2-dimethylpropyl)-2-(3,4-dimethoxyphenyl)acetamide]: the melting point was 164 to 165 °C.

Regarding `CC(C)(C)C(NC(=O)Cc1ccc(Cl)cc1)NC(Cc1cccc2ncccc12)=NC#N` (stereo not drawn) [Example 23, 2-(4-chlorophenyl)-N-(1-{[N-cyano-2-quinolin-5-ylethanimidoyl]amino}-2,2-dimethylpropyl)acetamide], the melting point lay in the range of 186 to 188 °C. The molecule `COc1ccc(CC(=O)NC(NC(=NC#N)c2cccc3ncccc23)C(C)(C)C)cc1OC` (stereo not drawn) [Example 24, N-(1-{[(cyanoimino)(quinolin-5-yl)methyl]amino}-2,2-dimethylpropyl)-2-(3,4-dimethoxyphenyl)acetamide] registered a melting point of 203 to 205 °C. `COc1ccc(CCC(C)NC(Cc2ccccc2C)=NC#N)cc1` (stereo not drawn) [Example 35, N′-cyano-N-[3-(4-methoxyphenyl)-1-methylpropyl]-2-(2-methylphenyl)ethanimidamide] returned a melting point of 103 to 104 °C. On to `N#CN=C(Cc1ccccc1F)N[C@@H]1CCc2ccccc21` [Example 50, N′-cyano-N-[(1R)-2,3-dihydro-1H-inden-1-yl]-2-(2-fluorophenyl)ethanimidamide], for which the melting point was 141 to 142 °C.

For `CC[C@@H](NC(Cc1cccnc1C)=NC#N)c1ccccc1` [Example 57, N′-cyano-2-(2-methylpyridin-3-yl)-N-[(1R)-1-phenylpropyl]ethanimidamide], the melting point is 52 to 54 °C. In the case of `Cc1ncccc1CC(=NC#N)N[C@@H]1CCCc2ccccc21` [Example 58, N′-cyano-2-(2-methylpyridin-3-yl)-N-[(1R)-1,2,3,4-tetrahydronaphthalen-1-yl]ethanimidamide] it was 193 to 194 °C.

What is called melting point is the temperature, or range, at which the solid turns liquid.

The record behind these values is US7241776B2, “Cyanoamidine P2X7 antagonists for the treatment of pain” (Abbott Laboratories, priority 2004, dated 2007).
